Experimental data taken from patent EP3763715A1, “HARRINGTONINES SALTS, IN PARTICULAR RETINOATES, THEIR PROCESS OF PREPARATION AND THEIR USES IN THE TREATMENT OF LEUKEMIAS, CANCERS, AUTOIMMUNE, SKIN, ALZHEIMER'S AND INFLAMMATORY BOWEL DISEASES AND VIRAL INFECTIONS, COMBINED WITH MYELOPOIESIS STIMULATING AGENTS” (Robin, Jean-Pierre, priority 2019, dated 2021).

How the values were obtained:
Assay type in all cases: cell-based, human
[1] = system: K562 cell line; assay: Testing on K562 leukemia cell line (MTT cytotoxicity); settings: K562 cells, 72 h incubation, preliminary screening, read-out: K562 (CML) IC50
Method: (§1) Retinoates of harringtonines described in this invention were tested on K562 cell line which is derived from the pleural effusion of a person with chronic myelogenous leukemia (CML, bcr-abl positive) in terminal blast crises (Lozzio and Lozzio, Blood, 1975, p321). The cell line was purchased from ATCC (American Tissue Culture Collection) and grown in RPMI medium supplemented with 10% heat-inactivated fetal calf serum, 2 mmol/L glutamine, […] penicillin and […] streptomycin. All tested products were initially dissolved in 2N HCl (pH=2) (alkaloid base) or in aqueous solvent (salt) or in DMSO (retinoids), supplemented with ultrasound treatment during 1 h. Working concentrations were made by dilution in culture medium (pH 7). Cells in exponential growth phase were placed into 96-microwell plates in concentration 3x10^4/mL (total volume 200 µL/well) and incubated with drugs for 72 h at 37° C. in 5% CO2 humidified atmosphere. Following incubation, 28 µL of MTT 3-(4,5 dimethylthiazol-2-yl)-2,5 tetrazolium bromide] dye solution (Sigma, St. Louis, Mo.) was added to each well. During the following 6 h of incubation at 37° C., the purple formazan product was formed by conversion of the yellow MTT salt in the mitochondria of the viable cells. The resulting precipitate was dissolved in DMSO and the amount of converted MTT was quantified in an ELISA reader (MR 5000, Dynatech). Each product was tested in triplicate (3x8 wells). Every test contained at least one plate with HHT as control, added in the same concentration as the tested products.

[2] = system: HL-60 cell line; assay: Testing on HL-60 leukemia cell line (MTT cytotoxicity); settings: HL-60 cells, medium with 20% fetal bovine serum, preliminary screening, read-out: HL60 (APL) IC50
Method: as §1
Retinoates of harringtonines described in this invention were tested on HL-60 cell line, derived from acute promyelocytic leukemia (APL) cells. HL-60 is a promyelocytic cell line derived by S.J. Collins, et al. (Proc. Natl. Acad. Sci. USA 1978 p2458). Peripheral blood leukocytes were obtained by leukopheresis from a person with APL (Gallagher R, et al. Blood 1978, p713) The cell line was purchased from ATCC (American Tissue Culture Collection) and the base growth medium was also completed with fetal bovine serum but at a final concentration of 20%, otherwise the same method than the one of example 10 was used.
Preliminary screening using this tumor cell lines are gathered in table 1.

[3] = system: MDA-MB-468; assay: Testing on breast cancer cell lines, sulforhodamine B (SRB) cell viability assay; settings: MDA-MB-468 breast cancer cells, preliminary screening, read-out: M DA-MB-468 (BC) IC50
Method: Operating Procedure were performed as described in the recent paper of Yakhni et al [Yakhni AM J CANCER RES 2019; 9(5) in press "Homoharringtonine, on approved anti-leukemia drug, suppresses triple negative breast cancer growth through a rapid reduction of anti-apoptotic protein abundance"]
The cell lines used in this study were MDA-MB-231 (ATCC® HTB-26™), MDA-MB-468 (ATCC® HTB-132™), MDA-MB-157 (ATCC® HTB-24™) and CAL-51. Those lines were chosen to represent the BRCA1/2 non-mutated TNBC transcriptomic subtypes, currently most in need of efficacious treatment due to lower sensibility of BRCA1 wild-type TNBC to the DNA-damaging chemotherapy (Masuda et al., Clin Cancer Res. 2013, p5533; Jiang et al., PLoS Med. 2016, pe1002193; Park et al. ESMO Open. 2018, pe000357). CAL-51 line represents the mesenchymal transcriptomic subtype whereas MDA-MB-157 and MDA-MB-231 represent the mesenchymal stem-like subtype (Lehmann et al. J Clin Invest. 2011, p2750). MDA-MB-468 was used as a model of aggressive, PTEN-negative TNBC, with hyperactivated EGFR signaling pathway due to EGFR amplification (Filmus et al., Biochem Biophys Res Commun. 1985, p898). MDA-MB-468 transcriptome classifies it into the basal-like 1 subtype (49). The MDA lines were purchased from the American Type Culture Collection (ATCC, Manassas, VA, USA). The CAL-51 was kindly provided by Dr Gerard Milano, from the Centre Antoine Lacassagne, Nice, France, where the line has been established (Gioanni et al., Br J Cancer 1990, p8). After initial expansion, the cell line stock vials were conserved, in liquid nitrogen, at the Biological Resource Center of Jean Perrin Comprehensive Cancer Center (biobank ID BB-0033-00075, Clermont-Ferrand, France). The MDA cell lines were cultured in the Leibovitz L-15 medium, whereas CAL-51 line was maintained in DMEM (both media from Invitrogen Life Technologies, Carlsbad, CA, USA). The media were supplemented with 10% heat-inactivated fetal bovine serum and […] gentamicin. CAL-51 line was kept at 37°C, in a humidified atmosphere with 5% CO2; the MDA lines were kept under the same conditions, however, without CO2, in a free gas exchange with atmospheric air. All cell lines were maintained in monolayer culture, in the sub-confluent status, with no more 30 passages of the cells thawed from the stock vial.
Homoharringtonine was supplied by LeukePharma Inc. (Houston, TX, USA) as water-soluble, crystalline tartaric acid salt. Initial stock solution of HHT-tartrate was prepared at 10 mM in sterile deionized water, aliquoted and kept at -80°C. For each experiment, a fresh HHT solution was prepared by dissolving the HHT stock in phosphate-buffered saline (PBS, GIBCO™, Invitrogen, Cergy-Pontoise, France).
Cell viability was assessed using the sulforhodamine B (SRB) assay (Sigma-Aldrich, St Louis, MO, USA) according to the method described by Vichai and Kirtikara (Nat Protoc. 2006, p1112). Cells were seeded in 96-well plates, at 5x10^3 or 1x10^3 cells/well (the MDA cell lines and CAL-51, respectively), left overnight to adhere and then treated with growing concentrations of HHT for 24h, 48h or 72h. After incubation with the drug, cells were washed twice with PBS and left for 72 h in the corresponding complete culture medium. Then the cells were fixed with trichloroacetic acid (final concentration 10%) at 4°C for 1 h, followed with plate washing with water five times, air drying and staining with 0.4% SRB dissolved in 1% acetic acid, at room temperature, for 30 min. The plates were subsequently washed four times with 1% acetic acid to remove unbound stain. To solubilize the protein-bound dye, 10 mM Tris base solution was added to each well. The cell viability, estimated through the present protein biomass, was determined by measuring optical density of the dye, using a spectrophotometer at wavelength of 540 nm (BMG Labtech, Ortenberg, Germany).
Preliminary screening using these tumor cell lines are gathered in table 1.

## OP5215 tamibarotenoate [Example 26]
[1]
  IC50: < 0.01 µM
[2]
  IC50: < 0.02 µM
[3]
  IC50: < 0.01 µM

## CC(C=CC1=C(C)CCCC1(C)C)=CC=CC(C)=CC(=O)O.COC(=O)CC(O)(CCCC(C)(C)O)C(=O)OC1C(OC)=CC23CCCN2CCc2cc4c(cc2C13)OCO4 (stereo not drawn) [Example 3, homoharringtonine 13-cis-retinoate]
[1]
  IC50: < 0.05 µM

## COC(=O)C[C@](O)(CCCC(C)(C)O)C(=O)O[C@@H]1C(OC)=C[C@]23CCCN2CCc2cc4c(cc2[C@H]13)OCO4.COc1ccc(-c2ccc3cc(C(=O)O)ccc3c2)cc1C12CC3CC(CC(C3)C1)C2 [Example 8, homoharringtonine "adapalenoate"]
[1]
  IC50: < 0.05 µM
[2]
  IC50: < 0.1 µM
[3]
  IC50: < 0.05 µM

## CC1=C(/C=C/C(C)=C/C=C/C(C)=C/C(=O)O)C(C)(C)CCC1.COC(=O)C[C@](O)(CCCC(C)(C)O)C(=O)O[C@@H]1C(OC)=C[C@]23CCCN2CCc2cc4c(cc2[C@H]13)OCO4 (relative stereo) [Example 1, homoharringtonine all-trans-retinoate]
[1]
  IC50: < 0.05 µM
[2]
  IC50: < 0.1 µM
[3]
  IC50: < 0.05 µM

## COC(=O)CC(O)(CCCC(C)(C)O)C(=O)OC1C(OC)=CC23CCCN2CCc2cc4c(cc2C13)OCO4.COc1cc(C)c(C=CC(C)=CC=CC(C)=CC(=O)O)c(C)c1C (stereo not drawn) [Example 4, homoharringtonine "acitretinoate"]
[1]
  IC50: < 0.05 µM
[2]
  IC50: < 0.1 µM

## CC1(C)CCC(C)(C)c2cc(C(=O)Nc3ccc(C(=O)O)cc3)ccc21.COC(=O)C[C@](O)(CCCC(C)(C)O)C(=O)O[C@@H]1C(OC)=C[C@]23CCCN2CCc2cc4c(cc2[C@H]13)OCO4 [Example 23, homoharringtonine Am 580 salt]
[1]
  IC50: < 0.05 µM
[2]
  IC50: < 0.1 µM
[3]
  IC50: < 0.05 µM

## CC(=Cc1ccc(C(=O)O)cc1)c1ccc2c(c1)C(C)(C)CCC2(C)C.COC(=O)CC(O)(CCCC(C)(C)O)C(=O)OC1C(OC)=CC23CCCN2CCc2cc4c(cc2C13)OCO4 (stereo not drawn) [Example 13, homoharringtonine arotinoate]
[1]
  IC50: < 0.05 µM

## COC(=O)CC1(C(=O)OC2C(OC)=CC34CCCN3CCc3cc5c(cc3C24)OCO5)CCCC(C)(C)O1.COc1cc(C)c(C=CC(C)=CC=CC(C)=CC(=O)O)c(C)c1C (stereo not drawn) [Example 19, anhydrohomoharringtonine "acitretinoate"]
[1]
  IC50: > 0.1 µM
[3]
  IC50: > 0.1 µM

## CC1(C)CC=C(c2cnc3ccccc3c2)c2cc(C(=O)Nc3ccc(C(=O)O)cc3)ccc21.COC(=O)CC(O)(CCCC(C)(C)O)C(=O)O[C@@H]1C(OC)=C[C@]23CCCN2CCc2cc4c(cc2[C@H]13)OCO4 (stereo partly drawn) [Example 10, Butanedioic acid, 2-hydroxy-2-(4-hydroxy-4-methylpentyl)-, 1-[(1S,3aR,14bS)-1,5,6,8,9,14b-hexahydro-2-methoxy-4H-cyclopenta[c][1,3]dioxolo[4,5-h]pyrrolo[2,1-b][3]benzazepin-1-yl]4-methyl ester, 4-[[[5,6-Dihydro-5,5-dimethyl-8-(3-quinolinyl)-2-naphthalenyl]carbonyl]amino]benzoate]
[1]
  IC50: < 0.05 µM
[2]
  IC50: < 0.1 µM
[3]
  IC50: < 0.05 µM

## COC(=O)CC(O)(CCCC(C)(C)O)C(=O)O[C@@H]1C(OC)=C[C@]23CCCN2CCc2cc4c(cc2[C@H]13)OCO4.Cc1ccc(C2=CCC(C)(C)c3ccc(C#Cc4ccc(C(=O)O)cc4)cc32)cc1 (stereo partly drawn) [Example 16, Butanedioic acid, 2-hydroxy-2-(4-hydroxy-4-methylpentyl)-, 1-[(1S,3aR,14bS)-1,5,6,8,9,14b-hexahydro-2-methoxy-4H-cyclopenta[a][1,3]dioxolo[4,5-h]pyrrolo[2,1-b][3]benzazepin-1-yl]4-methyl ester, 4-[[5,6-dihydro-5,5-dimethyl-8-(4-methylphenyl)-2-naphthalenyl]ethynyl]benzoate]
[1]
  IC50: < 0.05 µM
[2]
  IC50: < 0.1 µM

## CC(C=CC1=C(C)CCCC1(C)C)=CC=CC(C)=CC(=O)O.COC(=O)CC(O)(CCC(C)(C)O)C(=O)OC1C(OC)=CC23CCCN2CCc2cc4c(cc2C13)OCO4 (stereo not drawn) [Example 2, harringtonine all-trans-retinoate]
[1]
  IC50: < 0.1 µM
[2]
  IC50: > 0.1 µM

## COC(=O)CC(O)(CCC(C)(C)O)C(=O)OC1C(OC)=CC23CCCN2CCc2cc4c(cc2C13)OCO4.COc1cc(C)c(C=CC(C)=CC=CC(C)=CC(=O)O)c(C)c1C (stereo not drawn) [Example 17, harringtonine acitretinate]
[1]
  IC50: < 0.05 µM
[2]
  IC50: < 0.1 µM

## COC(=O)C[C@](O)(CCC(C)(C)O)C(=O)O[C@@H]1C(OC)=C[C@]23CCCN2CCc2cc4c(cc2[C@H]13)OCO4.COc1ccc(-c2ccc3cc(C(=O)O)ccc3c2)cc1C12CC3CC(CC(C3)C1)C2 [Example 9, harringtonine "adapalenoate"]
[1]
  IC50: < 0.1 µM

## OP5215 all-trans-retinoate [Example 24]
[1]
  IC50: < 0.05 µM
[2]
  IC50: < 0.1 µM

## CC(=Cc1ccc(C(=O)O)cc1)c1ccc2c(c1)C(C)(C)CCC2(C)C.COC(=O)CC(O)(CCC(C)(C)O)C(=O)OC1C(OC)=CC23CCCN2CCc2cc4c(cc2C13)OCO4 (stereo not drawn) [Example 14, harringtonine arotinoate]
[1]
  IC50: < 0.1 µM

## COC(=O)CC(O)(CCCC(C)(C)O)C(=O)OC1C(OC)=CC23CCCN2CCc2cc4c(cc2C13)OCO4.O=C(O)C=Cc1ccc(-c2ccc(O)c(C34CC5CC(CC(C5)C3)C4)c2)cc1 (stereo not drawn) [Example 6, homoharringtonine "adarotenoate"]
[1]
  IC50: < 0.05 µM
[2]
  IC50: < 0.1 µM
